Test results as given in patent US20260216347A1, “Substituted Imidazo-Based Compounds as Ligand Directed Degraders of IRAK3” (Celgene Corporation, priority 2022, published 2026).

Target: T1, IRAK3 (Homo sapiens, UniProt Q9Y616)
T1 construct: IRAK Endogenous HTRF Degradation Assay; endogenous in cells
T1 sequence (Q9Y616 1-596): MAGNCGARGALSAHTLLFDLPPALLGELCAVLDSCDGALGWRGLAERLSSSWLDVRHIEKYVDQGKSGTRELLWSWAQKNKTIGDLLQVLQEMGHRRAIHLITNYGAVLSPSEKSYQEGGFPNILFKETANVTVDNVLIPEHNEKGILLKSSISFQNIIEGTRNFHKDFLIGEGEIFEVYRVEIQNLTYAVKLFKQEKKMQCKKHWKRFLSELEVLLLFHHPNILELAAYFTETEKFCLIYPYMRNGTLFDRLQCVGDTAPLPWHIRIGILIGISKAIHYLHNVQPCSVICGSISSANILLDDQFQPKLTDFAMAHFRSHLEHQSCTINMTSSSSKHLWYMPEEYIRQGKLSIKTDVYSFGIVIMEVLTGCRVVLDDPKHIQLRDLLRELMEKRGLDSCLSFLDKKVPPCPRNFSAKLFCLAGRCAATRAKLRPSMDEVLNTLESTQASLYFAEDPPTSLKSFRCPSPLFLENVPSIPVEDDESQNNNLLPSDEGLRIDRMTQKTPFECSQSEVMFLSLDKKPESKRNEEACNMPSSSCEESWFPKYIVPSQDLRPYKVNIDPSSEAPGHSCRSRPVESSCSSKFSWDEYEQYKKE
Experiment: IRAK endogenous HTRF degradation assay (Total-IRAK3 HTRF kit)
Type: cell-based
Details: overnight incubation, lowest percentage of protein remaining
How it was run: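 Cells (~50 k) incubated overnight with 3-fold serial dilutions of compound, then lysed; total IRAK3 read by HTRF (665/615 nm ratio ×10,000), normalized to DMSO as 100%. EC50 from four-parameter logistic fit; Dmax = 100 − Ymin (lowest % protein remaining); DC50 = concentration giving 50% degradation.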

| Compound | IRAK3 HTRF degradation Ymin |
| --- | --- |
| Cc1cc(-c2cnc(Nc3cnn([C@H]4CC[C@@H](CN5CCN(c6ccc(C7CCC(=O)NC7=O)cc6)CC5)CC4)c3)c3nccn23)c(F)cc1F (relative stereo) [Compound 71, 3-(4-(4-(((cis)-4-(4-((5-(2,4-difluoro-5-methylphenyl)imidazo[1,2-a]pyrazin-8-yl)amino)-1H-pyrazol-1-yl)cyclohexyl)methyl)piperazin-1-yl)phenyl) piperidine-2,6-dione] | 13% |
| Cc1cccc(-c2cnc(Nc3cnn(C4CCN(CC(=O)N5CCN(c6ccc7c(c6)C(=O)N(C6CCC(=O)NC6=O)C7=O)CC5)CC4)c3)c3nccn23)c1 (centres unmarked) [Compound 1, 2-(2,6-dioxopiperidin-3-yl)-5-(4-(2-(4-(4-((5-(m-tolyl)imidazo[1,2-a]pyrazin-8-yl)amino)-1H-pyrazol-1-yl)piperidin-1-yl)acetyl)piperazin-1-yl)isoindoline-1,3-dione] | 27% |
| Cc1cccc(-c2cnc(Nc3cnn(C4CCN(CCN5CCN(c6ccc7c(c6)C(=O)N(C6CCC(=O)NC6=O)C7=O)CC5)CC4)c3)c3nccn23)c1 (centres unmarked) [Compound 2, 2-(2,6-dioxopiperidin-3-yl)-5-(4-(2-(4-(4-((5-(m-tolyl)imidazo[1,2-a]pyrazin-8-yl)amino)-1H-pyrazol-1-yl)piperidin-1-yl)ethyl)piperazin-1-yl)isoindoline-1,3-dione] | 18% |
| Cc1cccc(-c2cnc(Nc3cnn(C4CCN(CCCCN5CCN(c6ccc(C7CCC(=O)NC7=O)cc6)CC5)CC4)c3)c3nccn23)c1 (centres unmarked) [Compound 3, 3-(4-(4-(4-(4-(4-((5-(m-tolyl)imidazo[1,2-a]pyrazin-8-yl)amino)-1H-pyrazol-1-yl)piperidin-1-yl)butyl)piperazin-1-yl)phenyl) piperidine-2,6-dione] | 11% |
| Cc1cccc(-c2cnc(Nc3cnn(C4CCN(CCCN5CCN(c6ccc(C7CCC(=O)NC7=O)cc6)CC5)CC4)c3)c3nccn23)c1 (centres unmarked) [Compound 4, 3-(4-(4-(3-(4-(4-((5-(m-tolyl)imidazo[1,2-a]pyrazin-8-yl)amino)-1H-pyrazol-1-yl)piperidin-1-yl)propyl)piperazin-1-yl)phenyl) piperidine-2,6-dione] | 17% |
| Cc1cc(-c2cnc(Nc3cnn(C4CCN(CC(=O)N5CCN(c6ccc7c(c6)C(=O)N(C6CCC(=O)NC6=O)C7=O)CC5)CC4)c3)c3nccn23)c(F)cc1F (centres unmarked) [Compound 6, 5-(4-(2-(4-(4-((5-(2,4-difluoro-5-methylphenyl)imidazo[1,2-a]pyrazin-8-yl)amino)-1H-pyrazol-1-yl)piperidin-1-yl)acetyl)piperazin-1-yl)-2-(2,6-dioxopiperidin-3-yl)isoindoline-1,3-dione] | 23% |
| Cc1cc(-c2cnc(Nc3cnn(C4CCN(CCN5CCN(c6ccc(C7CCC(=O)NC7=O)cc6)C[C@@H]5C)CC4)c3)c3nccn23)c(F)cc1F (stereo partly drawn) [Compound 7, 3-(4-((S)-4-(2-(4-(4-((5-(2,4-difluoro-5-methylphenyl)imdazo [1,2-a]pyrazin-8-yl)amino)-1H-pyrazol-1-yl)piperidin-1-yl)ethyl)-3-methylpiperazin-1-yl)phenyl) piperidine-2,6-dione] | 12% |
| Cc1cc(-c2cnc(Nc3cnn(C4CCN(CCN5CCN(c6ccc(C7CCC(=O)NC7=O)cc6)CC5)CC4)c3)c3nccn23)c(F)cc1F (centres unmarked) [Compound 8, 3-(4-(4-(2-(4-(4-((5-(2,4-difluoro-5-methylphenyl)imidazo[1,2-a]pyrazin-8-yl)amino)-1H-pyrazol-1-yl)piperidin-1-yl)ethyl)piperazin-1-yl)phenyl)piperidine-2,6-dione] | 9% |
| Cc1cc(-c2cnc(Nc3cnn(C4CCN(CCN5CCN(c6ccc(C7CCC(=O)NC7=O)cc6)C[C@H]5C)CC4)c3)c3nccn23)c(F)cc1F (stereo partly drawn) [Compound 9, 3-(4-((R)-4-(2-(4-(4-((5-(2,4-difluoro-5-methylphenyl)imdazo [1,2-a]pyrazin-8-yl)amino)-1H-pyrazol-1-yl)piperidin-1-yl)ethyl)-3-methylpiperazin-1-yl)phenyl) piperidine-2,6-dione] | 14% |
| Cc1cc(-c2cnc(Nc3cnn(C4CCN(CC(=O)N5CCN(c6ccc7c(c6)CN(C6CCC(=O)NC6=O)C7=O)CC5)CC4)c3)c3nccn23)c(F)cc1F (centres unmarked) [Compound 10, 3-(5-(4-(2-(4-(4-((5-(2,4-difluoro-5-methylphenyl)imidazo[1,2-a]pyrazin-8-yl)amino)-1H-pyrazol-1-yl)piperidin-1-yl)acetyl)piperazin-1-yl)-1-oxoisoindolin-2-yl)piperidine-2,6-dione] | 14% |
| Cc1cc(-c2cnc(Nc3cnn([C@H]4CC[C@H](CCN5CCN(c6ccc(C7CCC(=O)NC7=O)cc6)CC5)CC4)c3)c3nccn23)c(F)cc1F (stereo partly drawn) [Compound 11, 3-(4-(4-(2-((trans)-4-(4-((5-(2,4-difluoro-5-methylphenyl)imidazo[1,2-a]pyrazin-8-yl)amino)-1H-pyrazol-1-yl)cyclohexyl)ethyl)piperazin-1-yl)phenyl)piperidine-2,6-dione] | 12% |
| Cc1cc(-c2ccc(Nc3cnn(C4CCN(CCN5CCN(c6ccc(C7CCC(=O)NC7=O)cc6)CC5)CC4)c3)c3nccn23)c(F)cc1F (centres unmarked) [Compound 12, 3-(4-(4-(2-(4-(4-((5-(2,4-difluoro-5-methylphenyl)imdazo [1,2-a]pyridin-8-yl)amino)-1H-pyrazol-1-yl)piperidin-1-yl)ethyl)piperazin-1-yl)phenyl) piperidine-2,6-dione] | 13% |
| Cc1cc(-c2cnc(Nc3cnn(C4CCN(CCN5[C@H](C)CN(c6ccc(C7CCC(=O)NC7=O)cc6)C[C@@H]5C)CC4)c3)c3nccn23)c(F)cc1F (stereo partly drawn) [Compound 13, 3-(4-((3S,5R)-4-(2-(4-(4-((5-(2,4-difluoro-5-methylphenyl)imdazo [1,2-a]pyrazin-8-yl)amino)-1H-pyrazol-1-yl)piperidin-1-yl)ethyl)-3,5-dimethylpiperazin-1-yl)phenyl) piperidine-2,6-dione] | 11% |
| Cc1cc(-c2cnc(Nc3cnn([C@H]4CC[C@@H](CCN5CCN(c6ccc(C7CCC(=O)NC7=O)cc6)CC5)CC4)c3)c3nccn23)c(F)cc1F (stereo partly drawn) [Compound 14, 3-(4-(4-(2-((cis)-4-(4-((5-(2,4-difluoro-5-methylphenyl)imidazo[1,2-a]pyrazin-8-yl)amino)-1H-pyrazol-1-yl)cyclohexyl)ethyl)piperazin-1-yl)phenyl) piperidine-2,6-dione] | 13% |
| Cc1cccc(-c2cnc(Nc3cnn(C4CCN(CC(=O)N5CCN(c6ccc7c(c6)C(=O)N(C6CCC(=O)NC6=O)C7)CC5)CC4)c3)c3nccn23)c1 (centres unmarked) [Compound 16, 3-(1-oxo-6-(4-(2-(4-(4-((5-(m-tolyl)imidazo[1,2-a]pyrazin-8-yl)amino)-1H-pyrazol-1-yl)piperidin-1-yl)acetyl)piperazin-1-yl)isoindolin-2-yl)piperidine-2,6-dione] | 45% |
| Cc1cc(-c2cnc(Nc3cnn(C4CCN(CC(=O)N5CCN(c6ccc(C7CCC(=O)NC7=O)cc6)CC5)CC4)c3)c3nccn23)c(F)cc1F (centres unmarked) [Compound 17, 3-(4-(4-(2-(4-(4-((5-(2,4-difluoro-5-methylphenyl)imidazo[1,2-a]pyrazin-8-yl)amino)-1H-pyrazol-1-yl)piperidin-1-yl)acetyl)piperazin-1-yl)phenyl)piperidine-2,6-dione] | 15% |
| Cc1cc(-c2cnc(Nc3cnn(C4CCN(CC(=O)N5CCN(c6ccc7c(c6)C(=O)N(C6CCC(=O)NC6=O)C7)CC5)CC4)c3)c3nccn23)c(F)cc1F (centres unmarked) [Compound 18, 3-(6-(4-(2-(4-(4-((5-(2,4-difluoro-5-methylphenyl)imidazo[1,2-a]pyrazin-8-yl)amino)-1H-pyrazol-1-yl)piperidin-1-yl)acetyl)piperazin-1-yl)-1-oxoisoindolin-2-yl)piperidine-2,6-dione] | 20% |
| Cc1cccc(-c2cnc(Nc3cnn(C4CCN(CC(=O)N5CCN(c6ccc7c(c6)CN(C6CCC(=O)NC6=O)C7=O)CC5)CC4)c3)c3nccn23)c1 (centres unmarked) [Compound 19, 3-(1-oxo-5-(4-(2-(4-(4-((5-(m-tolyl)imidazo[1,2-a]pyrazin-8-yl)amino)-1H-pyrazol-1-yl)piperidin-1-yl)acetyl)piperazin-1-yl)isoindolin-2-yl)piperidine-2,6-dione] | 18% |
| Cc1cc(-c2cnc(Nc3cnn(C4CCN(CCN5CCN(c6cccc(C7CCC(=O)NC7=O)c6)CC5)CC4)c3)c3nccn23)c(F)cc1F (centres unmarked) [Compound 31, 3-(3-(4-(2-(4-(4-((5-(2,4-difluoro-5-methylphenyl)imdazo [1,2-a]pyrazin-8-yl)amino)-1H-pyrazol-1-yl)piperidin-1-yl)ethyl)piperazin-1-yl)phenyl) piperidine-2,6-dione] | 40% |
| Cc1cc(-c2cnc(Nc3cnn(C4CCN(CCN5CCN(c6ccc(C7CCC(=O)NC7=O)cc6)CC5)CC4)c3)c3nccn23)ccc1F (centres unmarked) [Compound 33, 3-(4-(4-(2-(4-(4-((5-(4-fluoro-3-methylphenyl)imdazo [1,2-a]pyrazin-8-yl)amino)-1H-pyrazol-1-yl)piperidin-1-yl)ethyl)piperazin-1-yl)phenyl) piperidine-2,6-dione] | 13% |
